According to US5043450A, “8-alkoxyquinolonecarboxylic acid and salts thereof” (priority 1986, dated 1991):
Read-outs that look alike come from different tables or passages of the source.

What was measured:
Format in all cases: cell-based
[1] = tested on: Bacilus subtilis PCI 219; experiment: Antibacterial spectra, MIC; conditions: Bacillus subtilis, PCI219
[2] = tested on: Staphylococcus aureus 209 P; experiment: Antibacterial spectra, MIC
[3] = tested on: S. aureus IID 670 (Terajima); experiment: Antibacterial spectra, MIC; conditions: Staphylococcus aureus, IID670
[4] = tested on: S. aureus Smith; experiment: Antibacterial spectra, MIC; conditions: Staphylococcus aureus
[5] = tested on: S. epidermidis IID 866; experiment: Antibacterial spectra, MIC; conditions: Staphylococcus epidermidis, IID866
[6] = tested on: E. coli ML 4707; experiment: Antibacterial spectra, MIC; conditions: Escherichia coli, ML4707; 10^6 cells/ml; Gram -
Protocol: (§1) The antibacterial test was carried out according to the method designated by Japan Society of Chemotherapy.

[7] = tested on: E. faecalis IID 682; experiment: Antibacterial spectra, MIC; conditions: Enterococcus faecalis, IID682; 10^6 cells/ml; Gram +
Protocol: as §1

[8] = tested on: Proteus vulgaris IFO 3167; experiment: Antibacterial spectra, MIC; conditions: IFO3167, 10^6 cells/ml, Gram -
Protocol: as §1

[9] = tested on: Shigella sonnei IID 969; experiment: Antibacterial spectra, MIC; conditions: IID969, 10^6 cells/ml, Gram -
Protocol: as §1

[10] = tested on: Streptococcus pyogenes (S-8); experiment: Antibacterial spectra, MIC; conditions: 10^6 cells/ml, Gram +
Protocol: as §1

[11] = tested on: S. pyogenes IID 692; experiment: Antibacterial spectra, MIC; conditions: Streptococcus pyogenes, IID692
[12] = tested on: S. pneumoniae IID 552; experiment: Antibacterial spectra, MIC; conditions: Streptococcus pneumoniae, IID552
[13] = tested on: Escherichia coli NIHJ JC-2; experiment: Antibacterial spectra, MIC; conditions: NIHJJC2
[14] = tested on: E. coli ATCC 10536; experiment: Antibacterial spectra, MIC; conditions: Escherichia coli, ATCC10536
[15] = tested on: P. mirabilis IID 994; experiment: Antibacterial spectra, MIC; conditions: Proteus mirabilis, IID994
[16] = tested on: Morganella morganii IID 602; experiment: Antibacterial spectra, MIC; conditions: IID602
[17] = tested on: Klebsiella pneumoniae KY(GN)6445; experiment: Antibacterial spectra, MIC
[18] = tested on: K. pneumoniae 1-220S; experiment: Antibacterial spectra, MIC; conditions: Klebsiella pneumoniae, 1220S
[19] = tested on: Enterobacter cloacae IID 977; experiment: Antibacterial spectra, MIC; conditions: IID977
[20] = tested on: Citrobacter freundii IID 976; experiment: Antibacterial spectra, MIC
[21] = tested on: Serratia marcescens IID 618; experiment: Antibacterial spectra, MIC; conditions: IID618
[22] = tested on: Salmonella enteritidis IID 604; experiment: Antibacterial spectra, MIC; conditions: Salmonella enterica
[23] = tested on: Pseudomonas aeruginosa V-1; experiment: Antibacterial spectra, MIC; conditions: V1
[24] = tested on: P. aeruginosa IFO 12689; experiment: Antibacterial spectra, MIC; conditions: Pseudomonas aeruginosa, IFO12689
[25] = tested on: P. aeruginosa IID 1210; experiment: Antibacterial spectra, MIC; conditions: Pseudomonas aeruginosa, IID1210; 10^6 cells/ml; Gram -; read-out: MIC
[26] = tested on: P. cepacia GIFU 518; experiment: Antibacterial spectra, MIC; conditions: Burkholderia cepacia, GIFU518
[27] = tested on: P. maltophilia GIFU 2491; experiment: Antibacterial spectra, MIC; conditions: Stenotrophomonas maltophilia, GIFU2491
[28] = tested on: Yersinia enterocolitica IID 981; experiment: Antibacterial spectra, MIC; conditions: IID981
[29] = tested on: Acinetobacter anitratus IID 876; experiment: Antibacterial spectra, MIC; conditions: Acinetobacter calcoaceticus, IID876
[30] = tested on: Alcaligenes faecalis 0114002; experiment: Antibacterial spectra, MIC
[31] = tested on: Bacteroides fragilis GM 7000; experiment: Antibacterial spectra, MIC; conditions: GM7000
[32] = tested on: B. fragilis 0558; experiment: Antibacterial spectra, MIC; conditions: Bacteroides fragilis
[33] = tested on: B. fragilis 25285; experiment: Antibacterial spectra, MIC; conditions: Bacteroides fragilis
[34] = tested on: B. distasonis 8503; experiment: Antibacterial spectra, MIC; conditions: Parabacteroides distasonis
[35] = tested on: B. thetaiotaomicron (0661); experiment: Antibacterial spectra, MIC; conditions: Bacteroides thetaiotaomicron
[36] = tested on: B. vulgatus KYA 29327; experiment: Antibacterial spectra, MIC; conditions: Phocaeicola vulgatus, KYA29327
[37] = tested on: Fusobacterium mortiferum 4249; experiment: Antibacterial spectra, MIC
[38] = tested on: F. necrophorum S-45; experiment: Antibacterial spectra, MIC; conditions: Fusobacterium necrophorum, S45
[39] = tested on: F. varium KYA 8501; experiment: Antibacterial spectra, MIC; conditions: Fusobacterium varium, KYA8501
[40] = tested on: Eubacterium lentum GAI 5242; experiment: Antibacterial spectra, MIC; conditions: Eggerthella lenta, GAI5242
[41] = tested on: Propionibacterium acens 11828; experiment: Antibacterial spectra, MIC
[42] = tested on: Peptococcus magnus KY 017; experiment: Antibacterial spectra, MIC; conditions: Finegoldia magna, KY017
[43] = tested on: C. perfringens KYA 13123; experiment: microbe, parasite or virus in culture; conditions: Clostridium perfringens, KYA13123
[44] = tested on: C. ramosum; experiment: Antibacterial spectra, MIC; conditions: Thomasclavelia ramosa
[45] = tested on: Peptostreptococcus anaerobius KYA 27337; experiment: Antibacterial spectra, MIC; conditions: KYA27337
[46] = tested on: Pst. micros UPI 5464-1; experiment: Antibacterial spectra, MIC; conditions: Parvimonas micra, UPI54641
[47] = tested on: Veillonella parvula KYA 10790; experiment: Antibacterial spectra, MIC; conditions: KYA10790
[48] = 10^6 cells/ml, Gram -, read-out: MIC

Measured: MIC

CCNCC1CCN(c2c(F)cc3c(=O)c(C(=O)O)cn(C4CC4)c3c2OC)C1 (stereo not shown) [Exp. 9, 1-cyclopropyl-7-(3-ethylaminomethyl-1-pyrrolidinyl)-6-fluoro-1,4-dihydro-8-methoxy-4-oxo-3-quinolinecarboxylic acid]
0.025 µg/mL: [5] | [6] | [8] | [9] | [10] | [12] | [14] | [15]
0.0125 µg/mL: [2] | [3] | [4]
6.25 µg/mL: [25]
0.39 µg/mL: [23] | [36] | [46] | [47]
0.2 µg/mL: [16] | [27] | [37] | [38] | [44]
1.56 µg/mL: [24]; [48] | [39]; [48] | [41]; 10^6 cells/ml, Gram +, read-out: MIC
0.0063 µg/mL: [1] | [13]
0.05 µg/mL: [7] | [11] | [17] | [22] | [29]
0.78 µg/mL: [26] | [30] | [34] | [35]
≤ 0.05 µg/mL: [42] | [43] | [45]
0.055 µg/mL: [20]; IID976, 10^6 cells/ml, Gram -, read-out: MIC
0.1 µg/mL: [18] | [19] | [21] | [28] | [31] | [32] | [33] | [40]

CNCC1CCN(c2c(F)cc3c(=O)c(C(=O)O)cn(C4CC4)c3c2OC)C1 (stereo not shown) [Exp. 8, 1-cyclopropyl-6-fluoro-1,4-dihydro-8-methoxy-7-(3-methylaminomethyl-1-pyrrolidinyl)-4-oxo-3-quinolinecarboxylic acid]
3.13 µg/mL: [24] | [34] | [35] | [36] | [39]
0.05 µg/mL: [2] | [3] | [4] | [5] | [6] | [7] | [8] | [9] | [10] | [11] | [12] | [14] | [15] | [17] | [20]; IID976
≤ 0.05 µg/mL: [42]
1.56 µg/mL: [26]; [48] | [30]; [48]
0.39 µg/mL: [16] | [27] | [31] | [32] | [33] | [37] | [38] | [44] | [46] | [47]
0.025 µg/mL: [1] | [13]
0.2 µg/mL: [19] | [21] | [29] | [40] | [43] | [45]
0.1 µg/mL: [18] | [22] | [28]
12.5 µg/mL: [25]
0.78 µg/mL: [23] | [41]
